Assay results reported in patent US8247211B2, “Glycopeptide antibiotics” (American Cyanamid Company, priority 2001, dated 2012).

How the values were obtained:
Staphylococcus sp. = assay: In vitro antibacterial evaluation: minimum inhibitory concentration (MIC), broth dilution method; assay type: cell-based; settings: for MIC Staphylococcus aureus-SMITH (GC 4543): strain GC 4543; for MIC Staphylococcus haemolyticus (GC 4546): strain GC 4546; for MIC Coagulase Negative Staphylococcus (GC 4547): strain GC 4547; for MIC Coagulase Negative Staphylococcus (GC 4548): strain GC 4548; for MIC Coagulase Negative Staphylococcus (GC 4549): strain GC 4549; for MIC Coagulase Negative Staphylococcus (GC 4551): strain GC 4551; for MIC Coagulase Negative Staphylococcus (GC 6257): strain GC 6257
Method in brief: (§1)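 Susceptibility determined by NCCLS-recommended broth dilution (M7-A2), Muller-Hinton II […]. Concentration span 64-0.06 μg/mL, inoculum 5×10^5 CFU/mL. Isolates include strains resistant to methicillin, penicillin and/or vancomycin.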

Streptococcus sp. = assay: as above; assay type: cell-based; settings: broth dilution, 5×10^5 CFU/mL, 18 hours at 35° C.
Method in brief: as §1

Escherichia coli = assay: as above; assay type: cell-based; settings: 5×10^5 CFU/mL, 18 hours at 35° C.
Method in brief: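 First, organisms are seeded at 5×10^5 CFU/mL into Muller-Hinton II […]. Next, antibiotic is applied across 64-0.06 μg/mL by broth dilution (NCCLS M7-A2). Finally, the lowest inhibitory concentration is recorded as MIC.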

Enterococcus sp. = assay: as above; assay type: cell-based; settings: broth dilution, 5×10^5 CFU/mL, 18 hours at 35° C.
Method in brief: as §1

[1] = test system: Staphylococcus aureus-SMITH (GC 4543); assay: Acute lethal infection in mice (ED50); assay type: in vivo; settings: female CD-1 mice, intraperitoneal challenge, intravenous dose 30 min. after infection, 7 day survival ratios
Experimental: The therapeutic effects of glycopeptide antibiotics of Formula I are determined against acute lethal infections with S. aureus (strain Smith), a penicillin resistant strain of S. pneumoniae (strain GC 1894), and a vancomycin resistant strain of E. fecalis (strain GC 6189 and GC 2246). Female mice, CD-1 (Charles River Laboratories), 20 +1-2 gm, are challenged by intraperitoneal injection of sufficient bacteria (suspended in Trypticase Soy Broth or hog gastric mucin) to kill non-treated controls within 24-48 hr. Antibacterial agents, contained in 0.2 mL of saline or 5% dextrose solution, are administered intravenously 30 min. after infection. Five mice are treated at each dose level. The 7 day survival ratios from 3 separate tests are pooled for calculation of median effective dose (ED50).

[2] = broth dilution, 18 hours at 35° C.

COc1ccc(CC2OCC3OC(OC4C(CO)OC(Oc5ccc(CC6NC(=O)C(C(C)c7ccccc7)NC(=O)CNC(=O)C(CO)NC(=O)C(C(O)C7CNC(=N)N7C7OC(CO)C(O)C(O)C7O)NC(=O)C(C(O)C7CNC(=N)N7)NC6=O)cc5)C(O)C4O)C(O)C(O)C3O2)cc1 (stereo not shown) [Example 103]
0.12 µg/mL: MIC Streptococcus pneumoniae (GC 1894) (Streptococcus sp.) | MIC Streptococcus pneumoniae (GC 4565) (Streptococcus sp.) | MIC Streptococcus pneumonine (ATCC 6301) (Streptococcus sp.)
0.25 µg/mL: MIC Streptococcus pyogenes (GC 4563) (Streptococcus sp.)
1 µg/mL: MIC Staphylococcus aureus (GC 3051) (Staphylococcus sp.; strain GC 3051) | MIC Staphylococcus aureus-SMITH (GC 4543) (Staphylococcus sp.; 18 hours at 35° C.) | MIC Staphylococcus aureus-SMITH (GC 4543) (Staphylococcus sp.; [2]) | MIC Staphylococcus aureus (GC 4545) (Staphylococcus sp.; strain GC 4545) | MIC Staphylococcus haemolyticus (GC 4546) (Staphylococcus sp.) | MIC Staphylococcus haemolyticus (GC 4546) (Staphylococcus sp.; [2]) | MIC Coagulase Negative Staphylococcus (GC 4548) (Staphylococcus sp.) | MIC Coagulase Negative Staphylococcus (GC 4548) (Staphylococcus sp.; [2]) | MIC Coagulase Negative Staphylococcus (GC 4549) (Staphylococcus sp.) | MIC Coagulase Negative Staphylococcus (GC 4549) (Staphylococcus sp.; [2]) | MIC Coagulase Negative Staphylococcus (GC 6257) (Staphylococcus sp.) | MIC Coagulase Negative Staphylococcus (GC 6257) (Staphylococcus sp.; [2]) | MIC Escherichia coli (GC 4560) (Escherichia coli)
2 µg/mL: MIC Staphylococcus aureus (ATCC 29213) (Staphylococcus sp.; strain ATCC 29213) | MIC Staphylococcus aureus (GC 1131) (Staphylococcus sp.; strain GC 1131) | MIC Staphylococcus aureus (GC 3053) (Staphylococcus sp.; strain GC 3053) | MIC Staphylococcus aureus (GC 4541) (Staphylococcus sp.; strain GC 4541) | MIC Staphylococcus aureus (GC 4542) (Staphylococcus sp.; strain GC 4542) | MIC Staphylococcus aureus (GC 4544) (Staphylococcus sp.; strain GC 4544) | MIC Coagulase Negative Staphylococcus (GC 4547) (Staphylococcus sp.) | MIC Coagulase Negative Staphylococcus (GC 4547) (Staphylococcus sp.; [2]) | MIC Coagulase Negative Staphylococcus (GC 4551) (Staphylococcus sp.) | MIC Coagulase Negative Staphylococcus (GC 4551) (Staphylococcus sp.; [2]) | MIC Enterococccus faecium (GC 4557) (Enterococcus sp.)
8 µg/mL: MIC Enterococccus avium (GC 4558) (Enterococcus sp.) | MIC Enterococccus faecalis (GC 2691) (Enterococcus sp.) | MIC Enterococccus faecalis (GC 3059) (Enterococcus sp.) | MIC Enterococccus faecalis (GC 4552) (Enterococcus sp.) | MIC Enterococccus faecalis (GC 4553) (Enterococcus sp.) | MIC Enterococccus faecalis (GC 4554) (Enterococcus sp.)
4 µg/mL: MIC Enterococccus faecalis (ATCC 29212) (Enterococcus sp.) | MIC Enterococccus faecalis (GC 6189) (Enterococcus sp.) | MIC Enterococccus faecium (GC 2243) (Enterococcus sp.) | MIC Enterococccus faecium (GC 4556) (Enterococcus sp.) | MIC Enterococcus faecalis (GC 2242) (Enterococcus sp.)
0.5 µg/mL: MIC Streptococcus agalactiae (GC 4564) (Streptococcus sp.)
64 µg/mL: MIC Escherichia coli (ATCC 25922) (Escherichia coli) | MIC Escherichia coli (GC 4559) (Escherichia coli)
0.28 mg/kg: median effective dose (ED50), Staphylococcus aureus-SMITH (GC 4543) [1]
